This note sets out measurements from US20230265151A1, “GIP/GLP1 CO-AGONIST COMPOUNDS” (priority 2020, published 2023).

Read-outs that look alike come from different tables or passages of the source. Where a SMILES comes first, the peptide text is derived from it. Side-chain parts run from the residue outwards. [ ]: non-standard residue; d: D form. The star is where a group is joined. αMePhe(2-F) = C[C@](N)(Cc1ccccc1F)C(=O)O; C14 diacid = O=C(O)CCCCCCCCCCCCC(=O)*; αMeY = C[C@](N)(Cc1ccc(O)cc1)C(=O)O; αMeL = CC(C)C[C@](C)(N)C(=O)O; Orn = NCCC[C@H](N)C(=O)O; AEEA = NCCOCCOCC(=O)O; Aib = CC(C)(N)C(=O)O A value given as a limit tells only on which side of the number the result lay.

Common to all, as to assay type: cell-based
For assay [1], the target named is T1, hGIPR (Homo sapiens, UniProt P48546).
T1 construct: expressed in transfected cells
T1 sequence (P48546 22-466): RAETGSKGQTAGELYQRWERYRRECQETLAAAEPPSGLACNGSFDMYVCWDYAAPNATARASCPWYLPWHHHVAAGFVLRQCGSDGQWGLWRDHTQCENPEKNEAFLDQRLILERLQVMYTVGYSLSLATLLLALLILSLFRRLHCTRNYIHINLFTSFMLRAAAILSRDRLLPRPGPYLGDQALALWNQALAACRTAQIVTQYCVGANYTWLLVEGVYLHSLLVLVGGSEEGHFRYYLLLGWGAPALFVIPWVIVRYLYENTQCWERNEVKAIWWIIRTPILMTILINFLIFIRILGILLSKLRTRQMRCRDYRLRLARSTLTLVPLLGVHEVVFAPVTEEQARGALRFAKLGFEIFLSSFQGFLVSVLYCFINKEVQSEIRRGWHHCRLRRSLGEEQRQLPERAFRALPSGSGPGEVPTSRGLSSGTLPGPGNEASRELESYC
In words: Functional cAMP formation (HTRF) in HEK-293 clonal cells expressing hGIPR, 0.1% bovine casein, without or with 1.0% human serum albumin. Conditions: for Emax: percent of maximal response to GIP(1-42)NH2; for EC50: geometric mean. In a few lines:
(§1)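 Cells were stimulated with peptide for 30 min at 37° C, then lysed in buffer carrying cAMP-d2 and anti-cAMP Eu3+-cryptate for a competitive HTRF read after at least 60 min at room temperature. The 665/620 nm ratio was converted to nM cAMP against a standard curve.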
A general note: Cyclic AMP is a second messenger, typically raised through Gs and lowered through Gi signalling.

Assay [2] has as its target hGLP-1R (Homo sapiens, UniProt P43220). In words: Functional cAMP formation (HTRF) in HEK-293 clonal cells expressing hGLP-1R, 0.1% bovine casein, without or with 1.0% human serum albumin. Details: expressed in transfected cells. The conditions noted are these: for Emax: percent of maximal response to GLP-1(7-36)NH2; for EC50: cAMP, 37° C. In a few lines: as §1
The target in assay [3] is T2, hGCGR (Homo sapiens, UniProt P47871).
T2 construct: expressed in transfected cells
T2 sequence (P47871 26-477): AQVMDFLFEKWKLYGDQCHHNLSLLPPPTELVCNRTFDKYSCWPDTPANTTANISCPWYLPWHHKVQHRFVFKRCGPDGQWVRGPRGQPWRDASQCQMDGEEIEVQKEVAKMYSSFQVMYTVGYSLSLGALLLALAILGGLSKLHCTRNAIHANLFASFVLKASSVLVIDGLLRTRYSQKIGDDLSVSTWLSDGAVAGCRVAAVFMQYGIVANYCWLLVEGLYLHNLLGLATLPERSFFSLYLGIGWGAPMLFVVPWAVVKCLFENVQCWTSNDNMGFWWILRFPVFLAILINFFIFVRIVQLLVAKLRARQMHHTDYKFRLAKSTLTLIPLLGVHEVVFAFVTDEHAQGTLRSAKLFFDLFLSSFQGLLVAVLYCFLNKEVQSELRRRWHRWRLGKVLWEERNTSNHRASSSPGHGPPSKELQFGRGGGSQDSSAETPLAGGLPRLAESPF
As to the kind of experiment: Functional cAMP formation (HTRF) in HEK-293 clonal cells expressing hGCGR, 0.1% bovine casein, without or with 1.0% human serum albumin. Conditions: 37° C. In a few lines:
as §1

Where [4] appears, read: HEK293, read-out: hGIPR Emax, % ± SEM, cAMP, 37° C., 0.1% bovine casein, arithmetic mean.
Where [5] appears, read: hGIPR EC50, nM (SEM, n), cAMP, 37° C., 0.1% bovine casein (no human serum albumin).
Setting [6] is: HEK293, read-out: hGLP-1R Emax, % ± SEM, 0.1% bovine casein and 1.0% human serum albumin, 37° C.
Where [7] appears, read: HEK293, read-out: hGLP-1R Emax, % ± SEM, cAMP, 37° C., 0.1% bovine casein, arithmetic mean.
The mark [8] stands for this setting: hGLP-1R EC50, nM (SEM, n), 0.1% bovine casein (no human serum albumin), geometric mean.
Setting [9] is: hGCGR EC50, nM (SEM, n), 0.1% bovine casein and 1.0% human serum albumin, geometric mean.
Where [10] appears, read: hGCGR EC50, nM (SEM, n), cAMP, 0.1% bovine casein (no human serum albumin), geometric mean.

Chain of hGLP-1R (P43220 24-463): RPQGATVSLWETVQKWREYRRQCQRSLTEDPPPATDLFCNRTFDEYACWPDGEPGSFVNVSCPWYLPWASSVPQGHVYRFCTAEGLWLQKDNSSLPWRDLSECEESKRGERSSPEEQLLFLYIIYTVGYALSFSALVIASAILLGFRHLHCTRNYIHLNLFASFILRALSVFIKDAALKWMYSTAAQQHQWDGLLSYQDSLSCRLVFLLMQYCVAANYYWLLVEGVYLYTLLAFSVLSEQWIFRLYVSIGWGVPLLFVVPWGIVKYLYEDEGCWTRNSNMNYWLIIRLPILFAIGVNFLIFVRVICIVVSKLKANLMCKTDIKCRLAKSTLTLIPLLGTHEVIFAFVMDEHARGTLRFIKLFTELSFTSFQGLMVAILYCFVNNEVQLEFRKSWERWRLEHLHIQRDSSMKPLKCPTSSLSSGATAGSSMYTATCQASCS

A word on the Emax: it is the size of the effect at its maximum, as opposed to the concentration needed. The term EC50 denotes the midpoint of the concentration-response curve. With `CC[C@H](C)[C@H](NC(=O)[C@H](CCCN)NC(=O)[C@H](CC(=O)O)NC(=O)[C@H](CC(C)C)NC(=O)[C@](C)(CC(C)C)NC(=O)[C@@H](NC(=O)C(C)(C)NC(=O)[C@@H](NC(=O)[C@H](CC(=O)O)NC(=O)[C@H](CO)NC(=O)[C@@H](NC(=O)[C@](C)(Cc1ccccc1F)NC(=O)[C@@H](NC(=O)CNC(=O)[C@H](CCC(=O)O)NC(=O)C(C)(C)NC(=O)[C@@H](N)Cc1ccc(O)cc1)[C@@H](C)O)[C@@H](C)O)C(C)C)[C@@H](C)CC)C(=O)N[C@@H](C)C(=O)N[C@@H](CCC(N)=O)C(=O)NC(C)(C)C(=O)N[C@@H](CCC(=O)O)C(=O)N[C@@H](Cc1ccccc1)C(=O)N[C@H](C(=O)N[C@@H](CCCCNC(=O)COCCOCCNC(=O)COCCOCCNC(=O)CC[C@H](NC(=O)CCCCCCCCCOc1ccc(C(=O)O)cc1)C(=O)O)C(=O)N[C@@](C)(Cc1ccc(O)cc1)C(=O)N[C@@H](CC(C)C)C(=O)N[C@H](C(=O)N[C@@H](CCCCNC(=O)COCCOCCNC(=O)COCCOCCNC(=O)CC[C@H](NC(=O)CCCCCCCCCOc1ccc(C(=O)O)cc1)C(=O)O)C(=O)NCC(=O)NCC(=O)N1CCC[C@H]1C(=O)N[C@@H](CO)C(=O)N[C@@H](CO)C(=O)NCC(=O)N[C@@H](C)C(=O)N1CCC[C@H]1C(=O)N1CCC[C@H]1C(=O)N1CCC[C@H]1C(=O)N[C@@H](CO)C(N)=O)[C@@H](C)CC)[C@@H](C)CC` [Example 308], the Emax amounted to 117% in assay [1] (setting [4]), 92.2% in assay [2] (setting [6]) and 98% in assay [2] (setting [7]). Moreover, the EC50 in assay [1] (setting [5]) is 0.0551 nM; in assay [2] (setting [8]), 0.689 nM; in assay [3] (setting [9]), > 9950 nM; in assay [3] (setting [10]), > 9950 nM.
On to `CC[C@H](C)[C@H](NC(=O)[C@H](CC(C)C)NC(=O)[C@](C)(Cc1ccc(O)cc1)NC(=O)[C@@H](CCC(=O)O)NC(=O)[C@@H](NC(=O)[C@H](Cc1ccccc1)NC(=O)[C@H](CCCCNC(=O)COCCOCCNC(=O)COCCOCCNC(=O)CCCCCCCCCCCCC(=O)O)NC(=O)C(C)(C)NC(=O)[C@H](CCC(N)=O)NC(=O)[C@H](C)NC(=O)[C@H](CCCCNC(=O)COCCOCCNC(=O)COCCOCCNC(=O)CCCCCCCCCCCCC(=O)O)NC(=O)[C@H](CCCN)NC(=O)[C@H](CC(=O)O)NC(=O)[C@H](CC(C)C)NC(=O)[C@](C)(CC(C)C)NC(=O)[C@@H](NC(=O)[C@H](CO)NC(=O)[C@H](Cc1ccc(OC)cc1)NC(=O)[C@H](CC(=O)O)NC(=O)[C@H](CO)NC(=O)[C@@H](NC(=O)[C@](C)(Cc1ccccc1F)NC(=O)[C@@H](NC(=O)CNC(=O)[C@H](CCC(=O)O)NC(=O)C(C)(C)NC(=O)[C@@H](N)Cc1ccc(O)cc1)[C@@H](C)O)[C@@H](C)O)[C@@H](C)CC)[C@@H](C)CC)C(=O)N[C@@H](CCC(=O)O)C(=O)NCC(=O)NCC(=O)N1CCC[C@H]1C(=O)N[C@@H](CO)C(=O)N[C@@H](CO)C(=O)NCC(=O)N[C@@H](C)C(=O)N1CCC[C@H]1C(=O)N1CCC[C@H]1C(=O)N1CCC[C@H]1C(=O)N[C@@H](CO)C(N)=O` [Example 265] (H-Y[Aib]EGT[αMePhe(2-F)]TSDY(Me)SI[αMeL]LD[Orn]K([AEEA-AEEA-C14 diacid])AQ[Aib]K([AEEA-AEEA-C14 diacid])FI[dE][αMeY]LIEGGPSSGAPPPS-NH2), for which the Emax in assay [1] (HEK293, 0.1% bovine casein and 1.0% human serum albumin, 37° C., read-out: hGIPR Emax, % ± SEM) was 96%; in assay [1] (HEK293, cAMP, 37° C., 0.1% bovine casein, arithmetic mean, read-out: hGIPR Emax, % ± SEM) it was 100%. Further, the EC50 in assay [1] (cAMP, 37° C., 0.1% bovine casein (no human serum albumin), read-out: hGIPR EC50, nM (SEM, n)) was 0.0145 nM; in assay [2] (0.1% bovine casein (no human serum albumin), geometric mean, read-out: hGLP-1R EC50, nM (SEM, n)), 0.262 nM; in assay [3] (0.1% bovine casein and 1.0% human serum albumin, geometric mean, read-out: hGCGR EC50, nM (SEM, n)), > 9950 nM; in assay [3] (cAMP, 0.1% bovine casein (no human serum albumin), geometric mean, read-out: hGCGR EC50, nM (SEM, n)), > 9950 nM.
As to `CC[C@H](C)[C@H](NC(=O)[C@H](CCCN)NC(=O)[C@H](CC(=O)O)NC(=O)[C@H](CC(C)C)NC(=O)[C@](C)(CC(C)C)NC(=O)[C@@H](NC(=O)C(C)(C)NC(=O)[C@@H](NC(=O)[C@H](CC(=O)O)NC(=O)[C@H](CO)NC(=O)[C@@H](NC(=O)[C@](C)(Cc1ccccc1F)NC(=O)[C@@H](NC(=O)CNC(=O)[C@H](CCC(=O)O)NC(=O)C(C)(C)NC(=O)[C@@H](N)Cc1ccc(O)cc1)[C@@H](C)O)[C@@H](C)O)C(C)C)[C@@H](C)CC)C(=O)N[C@@H](C)C(=O)N[C@@H](CCC(N)=O)C(=O)NC(C)(C)C(=O)N[C@@H](CCCN)C(=O)N[C@@H](Cc1ccccc1)C(=O)N[C@H](C(=O)N[C@@H](CCCCNC(=O)COCCOCCNC(=O)COCCOCCNC(=O)CC[C@H](NC(=O)CCCCCCCCCOc1ccc(C(=O)O)cc1)C(=O)O)C(=O)N[C@@](C)(Cc1ccc(O)cc1)C(=O)N[C@@H](CC(C)C)C(=O)N[C@H](C(=O)N[C@@H](CCCCNC(=O)COCCOCCNC(=O)COCCOCCNC(=O)CC[C@H](NC(=O)CCCCCCCCCOc1ccc(C(=O)O)cc1)C(=O)O)C(=O)NCC(=O)NCC(=O)N1CCC[C@H]1C(=O)N[C@@H](CO)C(=O)N[C@@H](CO)C(=O)NCC(=O)N[C@@H](C)C(=O)N1CCC[C@H]1C(=O)N1CCC[C@H]1C(=O)N1CCC[C@H]1C(=O)N[C@@H](CO)C(N)=O)[C@@H](C)CC)[C@@H](C)CC` [Example 356], the Emax was 82.7% in assay [1] (HEK293, read-out: hGIPR Emax, % ± SEM, cAMP, 37° C., 0.1% bovine casein and 1.0% human serum albumin); 96.2% in assay [1] (setting [4]); 93% in assay [2] (HEK293, read-out: hGLP-1R Emax, % ± SEM, cAMP, 37° C., 0.1% bovine casein and 1.0% human serum albumin). Also, the EC50 in assay [1] (setting [5]) is 0.0488 nM; in assay [2] (setting [8]), 0.936 nM; in assay [2] (hGLP-1R EC50, nM (SEM, n), 0.1% bovine casein and 1.0% human serum albumin, geometric mean (SEM, n)), 23.4 nM; in assay [3] (setting [10]), > 9950 nM; in assay [3] (hGCGR EC50, nM (SEM, n), cAMP, 0.1% bovine casein and 1.0% human serum albumin, geometric mean (SEM, n)), > 9950 nM.
With `CC[C@H](C)[C@H](NC(=O)[C@H](CCCN)NC(=O)[C@H](CC(=O)O)NC(=O)[C@H](CC(C)C)NC(=O)[C@](C)(CC(C)C)NC(=O)[C@@H](NC(=O)[C@H](CO)NC(=O)[C@H](Cc1ccncc1)NC(=O)[C@H](CC(=O)O)NC(=O)[C@H](CO)NC(=O)[C@@H](NC(=O)[C@](C)(Cc1ccccc1F)NC(=O)[C@@H](NC(=O)CNC(=O)[C@H](CCC(=O)O)NC(=O)C(C)(C)NC(=O)[C@@H](N)Cc1ccc(O)cc1)[C@@H](C)O)[C@@H](C)O)[C@@H](C)CC)C(=O)N[C@@H](C)C(=O)N[C@@H](CCC(N)=O)C(=O)NC(C)(C)C(=O)N[C@@H](CCC(=O)O)C(=O)N[C@@H](Cc1ccccc1)C(=O)N[C@H](C(=O)N[C@@H](CCCCNC(=O)COCCOCCNC(=O)COCCOCCNC(=O)CC[C@H](NC(=O)CCCCCCCCCCOc1ccc(C(=O)O)cc1)C(=O)O)C(=O)N[C@@](C)(Cc1ccc(O)cc1)C(=O)N[C@@H](CC(C)C)C(=O)N[C@H](C(=O)N[C@@H](CCCCNC(=O)COCCOCCNC(=O)COCCOCCNC(=O)CC[C@H](NC(=O)CCCCCCCCCCOc1ccc(C(=O)O)cc1)C(=O)O)C(=O)NCC(=O)NCC(=O)N1CCC[C@H]1C(=O)N[C@@H](CO)C(=O)N[C@@H](CO)C(=O)NCC(=O)N[C@@H](C)C(=O)N1CCC[C@H]1C(=O)N1CCC[C@H]1C(=O)N1CCC[C@H]1C(=O)N[C@@H](CO)C(N)=O)[C@@H](C)CC)[C@@H](C)CC` [Example 286], the EC50 in assay [1] (hGIPR EC50, nM (SEM, n), 0.1% bovine casein and 1.0% human serum albumin, 37° C.) is 2.18 nM; in assay [3] (setting [9]), > 9950 nM; in assay [3] (setting [10]), > 9950 nM. Also, the Emax in assay [2] (setting [6]) turned out to be 90.3%; in assay [2] (setting [7]), 110%.
